According to patent US8834423B2, “Dissolvable microneedle arrays for transdermal delivery to human skin” (University of Pittsburgh—of the Commonwealth System of …, priority 2009, dated 2014):

Test system: epidermal cells
Settings: 5 mg/g of CMC, pyramidal array applied 5 minutes, 72 hours of exposure
Experimental: This is a therapeutically relevant concentration based on the area of skin targeted, yet well below levels associated with systemic toxicities. […] Arrays and residual material were removed 5 minutes after application, and after 72 hours of exposure, culture living skin explants were cryo-sectioned and fixed.

With `O=P1(N(CCCl)CCCl)NCCCO1` (stereo not shown) [CYTOXAN, cyclophosphamide] the “apoptosis (TUNEL) in skin sections” value was “extensive apoptosis of epidermal cells”.
